Test results: patent publication US8809362B2, “Anticancer agent sensitivity-determining marker” (priority 2009, dated 2014)

How the values were obtained:
WiDr = test: MTS assay sensitivity (IC50) to SN-38, WiDr (Example 3); type: cell-based, human; settings: 72 hours exposure, highest IC50 of eight lines
Protocol: (§1) Cancer cells of each cell line were exposed to SN-38 (0 nmol/L to 5 μmol/L) for 72 hours. After exposure to SN-38, cell viability was determined by means of an MTS assay (CellTiter96™AQueous One Solution Cell Proliferation Assay, Promega). IC50 (concentration of SN-38 at which 50% of cells in an SN-38-non-treated well are inhibited) was calculated for each cell line and employed as the sensitivity of the cell line to SN-38. Sensitivity determination of each cell line was performed in triplicate and twice.
(§2) The experiment procedure of Example 2 was repeated twice. The data obtained in the experiments (three times in total) were further analyzed. Peaks detected through CE-TOFMS in the tested cell samples were compared with the data of 278 standard samples whose m/z values and migration times were already known, whereby 146 metabolites were identified in any of the tested cell samples. The 146 metabolites were investigated through single regression analysis in terms of the correlation between the intracellular content (in eight human colorectal cancer cell lines) and Log[IC50] of each cell line.
(§3) The sensitivity of each of eight human colorectal cancer cell lines (HCT-116, HT-29, HCT-15, Lovo, LS174T, SW480, SW620, and WiDr) was evaluated by employing IC50 calculated through MTS assay as an index.

HT-29 cells = test: MTS assay cell viability under SN-38 exposure, HT-29; type: cell-based, human; settings: HT-29, 50 nmol/L SN-38, exposure for 72 hours
Protocol: (§4) Two human colorectal cancer cell lines (HCT-116 and HT-29) employed were obtained from Kabushiki Kaisha Yakult Honsha.
(§5) Cell culturing was performed by means of a φ100 mm/Tissue Culture Dish (IWAKI) with a medium (Doulbecco's modified Eagle's Medium, 10% fetal bovine serum) at 37° C. under 5% CO2.
(§6) SN-38 powder was obtained from Kabushiki Kaisha Yakult Honsha. SN-38 was dissolved in DMSO, and, before use, the solution was diluted so that the DMSO concentration of each of the culture media employed in experiments was adjusted to 0.1% or less.
(§7) Cells of two colorectal cancer cell lines (HCT-116 and HT-29) were exposed to 50 nmol/L SN-38, and 24, 48, and 72 hours after drug exposure, cell viability was determined by means of an MTS assay (CellTiter96™AQueous One Solution Cell Proliferation Assay, Promega). Sensitivity evaluation of each cell line was performed in triplicate with three different passage numbers of cells, and the mean value and standard deviation were calculated.

HCT-116 cells = test: MTS assay cell viability under SN-38 exposure, HCT-116; type: cell-based, human; settings: HCT-116, 50 nmol/L SN-38, exposure for 72 hours
Protocol: as §4, §5, §6, §7

[1] = background statement; cited from earlier work
LS174T = test: MTS assay sensitivity (IC50) to SN-38, LS174T (Example 3); type: cell-based, human; settings: 72 hours exposure, lowest IC50 of eight lines
Protocol: as §1, §2, §3

Row | SMILES | IC50 (WiDr) | cell viability (HT-29 cells) | cell viability (HCT-116 cells) | anti-tumor activity relative to CPT-11 [1] | IC50 (LS174T) | cytotoxicity [1]
1 | CCc1c2c(nc3ccc(O)cc13)-c1cc3c(c(=O)n1C2)COC(=O)[C@]3(O)CC [SN-38, 7-ethyl-10-hydroxycamptothecin] | 63.3 ± 10.9 nM | about 85% | about 35% | about 100 times to some thousand times that of CPT-11 | 0.71 ± 0.18 nM | –
2 | CCc1c2c(nc3ccc(O[C@@H]4O[C@H](C(=O)O)[C@@H](O)[C@H](O)[C@H]4O)cc13)-c1cc3c(c(=O)n1C2)COC(=O)[C@]3(O)CC [SN-38G, SN-38 glucuronate conjugate] | – | – | – | – | – | no cytotoxicity
